This note sets out measurements from US20230365592A1 (Agios Pharmaceuticals, Inc., priority 2022, published 2023).

The assay has as its target T1, human PAH with the R408W mutation (Homo sapiens, UniProt P00439, R408W).
T1 construct: expressed in transfected cells
T1 sequence (P00439 1-452 R408W): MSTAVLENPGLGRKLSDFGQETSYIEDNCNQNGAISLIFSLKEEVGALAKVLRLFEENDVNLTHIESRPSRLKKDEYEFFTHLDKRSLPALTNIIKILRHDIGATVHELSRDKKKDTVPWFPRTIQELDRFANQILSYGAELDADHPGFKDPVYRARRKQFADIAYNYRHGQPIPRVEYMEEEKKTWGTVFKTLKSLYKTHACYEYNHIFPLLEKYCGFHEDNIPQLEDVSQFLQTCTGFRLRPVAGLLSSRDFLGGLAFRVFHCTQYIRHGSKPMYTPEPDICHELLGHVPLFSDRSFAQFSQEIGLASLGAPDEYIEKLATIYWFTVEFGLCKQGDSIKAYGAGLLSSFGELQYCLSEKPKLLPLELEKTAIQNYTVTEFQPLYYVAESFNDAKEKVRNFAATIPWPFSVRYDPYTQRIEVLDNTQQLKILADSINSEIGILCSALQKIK
The assay is described as follows: Cell Based Phenylalanine Flux Assay.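 Also: after compound treatment, cells received sepiapterin plus isotope-labelled Phenylalanine for 4 hours, then labelled Tyrosine in the medium was quantified, 10-point 2-fold dilution series run in duplicate.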 The following applies: A375 cells expressing human R408W PAH; 24 hrs compound incubation; 13C-Tyrosine by LC-MS; average where tested multiple times; read-out: AC50.

Structures are written as SMILES.

The term AC50 denotes the midpoint of the concentration-response curve, whichever way the signal moves.

As for `FC(F)c1nnc(N2CCc3[nH]cnc3[C@H]2c2cc3c(C(F)F)cccn3n2)o1` [Example 1733, (S)-2-(difluoromethyl)-5-(4-(4-(difluoromethyl)pyrazolo[1,5-a]pyridin-2-yl)-6,7-dihydro-1H-imidazo[4,5-c]pyridin-5(4H)-yl)-1,3,4-oxadiazole], the AC50 is less than 500 nM.
The figure for `FC(F)c1nnc(N2CCc3[nH]cnc3[C@H]2c2cc3c(C(F)(F)F)cccn3n2)o1` [Example 1735, (S)-2-(difluoromethyl)-5-(4-(4-(trifluoromethyl)pyrazolo[1,5-a]pyridin-2-yl)-6,7-dihydro-1H-imidazo[4,5-c]pyridin-5(4H)-yl)-1,3,4-oxadiazole] is less than 500 nM.
On to `Fc1cccn2nc([C@@H]3c4nc[nH]c4CCN3c3nnc(C(F)F)o3)cc12` [Example 1737, (S)-2-(difluoromethyl)-5-(4-(4-fluoropyrazolo[1,5-a]pyridin-2-yl)-6,7-dihydro-1H-imidazo[4,5-c]pyridin-5(4H)-yl)-1,3,4-oxadiazole], for which the AC50 lay within 500 to 1000 nM.
The figure for `FC(F)c1nnc(N2CCc3[nH]cnc3[C@H]2c2cc3c(Cl)cccn3n2)o1` [Example 1739, (S)-2-(4-(4-chloropyrazolo[1,5-a]pyridin-2-yl)-6,7-dihydro-1H-imidazo[4,5-c]pyridin-5(4H)-yl)-5-(difluoromethyl)-1,3,4-oxadiazole] is less than 500 nM; for `Cc1cccc2cc([C@H]3c4nc[nH]c4CCN3c3nnc(C(F)F)o3)nn12` [Example 1740, (R)-2-(difluoromethyl)-5-(4-(7-methylpyrazolo[1,5-a]pyridin-2-yl)-6,7-dihydro-1H-imidazo[4,5-c]pyridin-5(4H)-yl)-1,3,4-oxadiazole] it is greater than 5000 nM.
To `Cc1cccc2cc([C@@H]3c4nc[nH]c4CCN3c3nnc(C(F)F)o3)nn12` [Example 1741, (S)-2-(difluoromethyl)-5-(4-(7-methylpyrazolo[1,5-a]pyridin-2-yl)-6,7-dihydro-1H-imidazo[4,5-c]pyridin-5(4H)-yl)-1,3,4-oxadiazole] belongs 500 to 1000 nM; to `O=C(c1cnn2cc(C3CC3)ccc12)N1CCc2[nH]cnc2[C@H]1c1cc2c(C(F)F)cccn2n1` [Example 1742, (S)-(6-cyclopropylpyrazolo[1,5-a]pyridin-3-yl)(4-(4-(difluoromethyl)pyrazolo[1,5-a]pyridin-2-yl)-6,7-dihydro-1H-imidazo[4,5-c]pyridin-5(4H)-yl)methanone], less than 500 nM; to `O=C(c1cnn2cc(C3CC3)ccc12)N1CCc2[nH]cnc2[C@@H]1c1cc2c(C(F)F)cccn2n1` [Example 1743, (R)-(6-cyclopropylpyrazolo[1,5-a]pyridin-3-yl)(4-(4-(difluoromethyl)pyrazolo[1,5-a]pyridin-2-yl)-6,7-dihydro-1H-imidazo[4,5-c]pyridin-5(4H)-yl)methanone], 1000 to 5000 nM.
For `O=C(c1cnn2cc(C3CC3)ccc12)N1CCc2[nH]cnc2[C@H]1c1cc2cccc(Cl)n2n1` [Example 1744, (S)-(4-(7-chloropyrazolo[1,5-a]pyridin-2-yl)-6,7-dihydro-1H-imidazo[4,5-c]pyridin-5(4H)-yl)(6-cyclopropylpyrazolo[1,5-a]pyridin-3-yl)methanone], the AC50 lay within 1000 to 5000 nM.
The figure for `O=C(c1cnn2cc(C3CC3)ccc12)N1CCc2[nH]cnc2[C@@H]1c1cc2cccc(Cl)n2n1` [Example 1745, (R)-(4-(7-chloropyrazolo[1,5-a]pyridin-2-yl)-6,7-dihydro-1H-imidazo[4,5-c]pyridin-5(4H)-yl)(6-cyclopropylpyrazolo[1,5-a]pyridin-3-yl)methanone] is greater than 5000 nM; for `CN(C)c1ccc2c(C(=O)N3CCc4[nH]cnc4[C@@H]3c3cc4c(C(F)(F)F)cccn4n3)cnn2c1` [Example 1747, (R)-(6-(dimethylamino)pyrazolo[1,5-a]pyridin-3-yl)(4-(4-(trifluoromethyl)pyrazolo[1,5-a]pyridin-2-yl)-6,7-dihydro-1H-imidazo[4,5-c]pyridin-5(4H)-yl)methanone] it is greater than 5000 nM; for `FC(F)(F)c1cnc(N2CCc3[nH]cnc3[C@H]2c2cc3ccccn3n2)nc1` [Example 1752, (S)-4-(pyrazolo[1,5-a]pyridin-2-yl)-5-(5-(trifluoromethyl)pyrimidin-2-yl)-4,5,6,7-tetrahydro-1H-imidazo[4,5-c]pyridine] it is less than 500 nM.
The figure for `Cc1cccn2nc([C@@H]3c4nc[nH]c4CCN3c3ncc(C(F)(F)F)cn3)cc12` [Example 1754, (S)-4-(4-methylpyrazolo[1,5-a]pyridin-2-yl)-5-(5-(trifluoromethyl)pyrimidin-2-yl)-4,5,6,7-tetrahydro-1H-imidazo[4,5-c]pyridine] is less than 500 nM; for `Cc1cccn2nc([C@H]3c4nc[nH]c4CCN3c3ncc(C(F)(F)F)cn3)cc12` [Example 1755, (R)-4-(4-methylpyrazolo[1,5-a]pyridin-2-yl)-5-(5-(trifluoromethyl)pyrimidin-2-yl)-4,5,6,7-tetrahydro-1H-imidazo[4,5-c]pyridine] it is greater than 5000 nM.
Turning to `CC(C)(C)c1nnc(C(=O)N2CCc3[nH]cnc3[C@H]2c2cc3c(OC(F)(F)F)cccn3n2)o1` [Example 1759, (S)-(5-(tert-butyl)-1,3,4-oxadiazol-2-yl)(4-(4-(trifluoromethoxy)pyrazolo[1,5-a]pyridin-2-yl)-6,7-dihydro-1H-imidazo[4,5-c]pyridin-5(4H)-yl)methanone], the AC50 is 500 to 1000 nM.
To `O=C(c1nnc(-c2ccccn2)o1)N1CCc2[nH]cnc2[C@H]1c1cc2c(OC(F)(F)F)cccn2n1` [Example 1760, (S)-(5-(pyridin-2-yl)-1,3,4-oxadiazol-2-yl)(4-(4-(trifluoromethoxy)pyrazolo[1,5-a]pyridin-2-yl)-6,7-dihydro-1H-imidazo[4,5-c]pyridin-5(4H)-yl)methanone] belongs less than 500 nM.
The figure for `FC(F)c1cccn2nc([C@@H]3c4nc[nH]c4CCN3c3ncccn3)cc12` [Example 1762, (S)-4-(4-(difluoromethyl)pyrazolo[1,5-a]pyridin-2-yl)-5-(pyrimidin-2-yl)-4,5,6,7-tetrahydro-1H-imidazo[4,5-c]pyridine] is less than 500 nM.
In the case of `FC(F)c1cccn2nc([C@H]3c4nc[nH]c4CCN3c3ncccn3)cc12` [Example 1763, (R)-4-(4-(difluoromethyl)pyrazolo[1,5-a]pyridin-2-yl)-5-(pyrimidin-2-yl)-4,5,6,7-tetrahydro-1H-imidazo[4,5-c]pyridine], the AC50 is 1000 to 5000 nM.
The figure for `FC(F)(F)c1cccc2cc([C@H]3c4nc[nH]c4CCN3c3ncccn3)nn12` [Example 1764, (R)-5-(pyrimidin-2-yl)-4-(7-(trifluoromethyl)pyrazolo[1,5-a]pyridin-2-yl)-4,5,6,7-tetrahydro-1H-imidazo[4,5-c]pyridine] is 1000 to 5000 nM; for `FC(F)(F)c1cccc2cc([C@@H]3c4nc[nH]c4CCN3c3ncccn3)nn12` [Example 1765, (S)-5-(pyrimidin-2-yl)-4-(7-(trifluoromethyl)pyrazolo[1,5-a]pyridin-2-yl)-4,5,6,7-tetrahydro-1H-imidazo[4,5-c]pyridine] it is 500 to 1000 nM.
The figure for `FC(F)c1cccn2nc([C@@H]3c4nc[nH]c4CCN3c3nnc(C(F)(F)F)o3)cc12` [Example 1767, (S)-2-(4-(4-(difluoromethyl)pyrazolo[1,5-a]pyridin-2-yl)-6,7-dihydro-1H-imidazo[4,5-c]pyridin-5(4H)-yl)-5-(trifluoromethyl)-1,3,4-oxadiazole] is less than 500 nM.
